Target: recombinant B-RAF enzyme (Homo sapiens (Human), UniProt P15056)
Assay: In vitro B-RAF Kinase Assay (HTRF), IC50 determination
Format: biochemical
Conditions: 6HIS-Mek1 substrate, 60 min at 23° C.
Procedure: In vitro B-RAF Kinase Assay. To determine in vitro activities of recombinant B-RAF enzyme, a Homogeneous Time-Resolved Fluorescence (HTRF) assay was performed. […] Meanwhile, an Anti-6HIS-d2 antibody (Anti-6HIS-d2, Cisbio international) was added to detection system. When the two antibodies were close enough, energy, transfer was happened between Eu and d2, then activities of enzyme was determine by measuring fluorescence intensity (320 nm excitation, 665 nm emission).
IC50 determination. To evaluate in vitro potency of compounds against B-RAF enzyme, the IC50 values of compounds of this invention were determined. Compounds were 3-fold serially diluted with 100% DMSO from 1 mM, then 4 ml of compounds were transferred to 96 ml of reaction buffer (50 mM HEPES pH7.4, 10 mM MgCl2, 1 mM EGTA, 0.01% Tween-20, 0.005% BAS, 2 mM DTT). […] Then 2.5 ml of 4×ATP (2 mM) was added to the reaction system and initiated the reaction. The assay plate was incubated in an incubator for 60 min at 23° C., then the reaction was terminated by adding 5 ml of detection solution containing Eu3+ cryptate-labeled anti-phosphotyrosine PT66 antibody, and 5 ml of Anti-6HIS-d2 antibody. The plate was incubated for 1 h at 23° C. and the fluorescent signal was read with an EnVision multilable plate reader (PerkinElmer). IC50 values of compounds were generated using GraFit software (Version 6.0).

Sequence of recombinant B-RAF enzyme (P15056 whole entry, species assumed): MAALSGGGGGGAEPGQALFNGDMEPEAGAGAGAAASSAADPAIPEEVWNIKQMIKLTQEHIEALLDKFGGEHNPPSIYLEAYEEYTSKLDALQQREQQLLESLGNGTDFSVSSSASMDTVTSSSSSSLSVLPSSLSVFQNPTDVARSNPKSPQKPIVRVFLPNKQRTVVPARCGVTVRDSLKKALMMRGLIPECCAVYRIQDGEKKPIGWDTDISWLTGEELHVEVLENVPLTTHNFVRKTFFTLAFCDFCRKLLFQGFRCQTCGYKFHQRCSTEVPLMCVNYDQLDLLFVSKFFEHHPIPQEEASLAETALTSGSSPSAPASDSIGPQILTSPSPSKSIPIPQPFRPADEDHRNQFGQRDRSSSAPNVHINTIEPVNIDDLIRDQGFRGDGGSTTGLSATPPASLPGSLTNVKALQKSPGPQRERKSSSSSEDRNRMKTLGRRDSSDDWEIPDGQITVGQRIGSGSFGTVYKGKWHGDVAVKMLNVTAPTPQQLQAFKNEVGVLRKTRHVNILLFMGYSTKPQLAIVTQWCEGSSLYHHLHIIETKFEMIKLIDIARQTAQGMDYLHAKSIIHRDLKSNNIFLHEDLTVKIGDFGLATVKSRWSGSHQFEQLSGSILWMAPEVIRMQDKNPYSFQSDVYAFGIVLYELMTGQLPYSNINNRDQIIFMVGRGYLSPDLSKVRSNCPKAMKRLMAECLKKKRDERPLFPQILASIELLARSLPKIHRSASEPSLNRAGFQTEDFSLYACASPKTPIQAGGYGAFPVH

Structure (SMILES): CCCS(=O)(=O)Nc1ccc(F)c(Nc2ncccc2-c2ncnc3[nH]cnc23)c1F [Example 1, N-(3-(3-(9H-purin-6-yl)pyridin-2-ylamino)-2,4-difluorophenyl)propane-1-sulfonamide]
- IC50: < 100 nM

Structure (SMILES): CCCS(=O)(=O)Nc1ccc(F)c(Nc2ncccc2-c2ncnc3[nH]c(C)nc23)c1F [Example 3, N-(2,4-difluoro-3-(3-(8-methyl-9H-purin-6-yl)pyridin-2-ylamino)phenyl)propane-1-sulfonamide]
- IC50: < 500 nM

Structure (SMILES): CCCS(=O)(=O)Nc1ccc(F)c(Nc2ncccc2-c2ncnc3[nH]cnc23)c1 [Example 4, N-(3-(3-(9H-purin-6-yl)pyridin-2-ylamino)-4-fluorophenyl)propane-1-sulfonamide]
- IC50: < 100 nM

Structure (SMILES): CCCS(=O)(=O)Nc1ccc(Cl)c(Nc2ncccc2-c2ncnc3[nH]cnc23)c1 [Example 5, N-(3-(3-(9H-purin-6-yl)pyridin-2-ylamino)-4-chlorophenyl)propane-1-sulfonamide]
- IC50: < 100 nM

Structure (SMILES): CCCS(=O)(=O)Nc1ccc(C)c(Nc2ncccc2-c2ncnc3[nH]cnc23)c1 [Example 6, N-(3-(3-(9H-purin-6-yl)pyridin-2-ylamino)-4-methylphenyl)propane-1-sulfonamide]
- IC50: < 100 nM

Structure (SMILES): CCCS(=O)(=O)Nc1ccc(Cl)c(Nc2ncccc2-c2ncnc3[nH]cnc23)c1F [Example 7, N-(3-(3-(9H-purin-6-yl)pyridin-2-ylamino)-4-chloro-2-fluorophenyl)propane-1-sulfonamide]
- IC50: < 100 nM

Structure (SMILES): CCCS(=O)(=O)Nc1ccc(F)c(Nc2ncccc2-c2ncnc3[nH]cnc23)c1Cl [Example 8, N-(3-(3-(9H-purin-6-yl)pyridin-2-ylamino)-2-chloro-4-fluorophenyl)propane-1-sulfonamide]
- IC50: < 100 nM

Structure (SMILES): O=S(=O)(CCCF)Nc1ccc(Cl)c(Nc2ncccc2-c2ncnc3[nH]cnc23)c1F [Example 9, N-(3-(3-(9H-purin-6-yl)pyridin-2-ylamino)-4-chloro-2-fluorophenyl)-3-fluoropropane-1-sulfonamide]
- IC50: < 100 nM

Structure (SMILES): O=S(=O)(CCCF)Nc1ccc(F)c(Nc2ncccc2-c2ncnc3[nH]cnc23)c1F [Example 10, N-(3-(3-(9H-purin-6-yl)pyridin-2-ylamino)-2,4-difluorophenyl)-3-fluoropropane-1-sulfonamide]
- IC50: < 100 nM

Structure (SMILES): O=S(=O)(CCl)Nc1ccc(F)c(Nc2ncccc2-c2ncnc3[nH]cnc23)c1F [Example 11, N-(3-(3-(9H-purin-6-yl)pyridin-2-ylamino)-2,4-difluorophenyl)-1-chloromethanesulfonamide]
- IC50: < 500 nM

Structure (SMILES): CCS(=O)(=O)Nc1ccc(F)c(Nc2ncccc2-c2ncnc3[nH]cnc23)c1F [Example 12, N-(3-(3-(9H-purin-6-yl)pyridin-2-ylamino)-2,4-difluorophenyl)ethanesulfonamide]
- IC50: < 1000 nM

Structure (SMILES): CS(=O)(=O)Nc1ccc(F)c(Nc2ncccc2-c2ncnc3[nH]cnc23)c1F [Example 13, N-(3-(3-(9H-purin-6-yl)pyridin-2-ylamino)-2,4-difluorophenyl)methanesulfonamide]
- IC50: < 500 nM

Structure (SMILES): O=S(=O)(Nc1ccc(F)c(Nc2ncccc2-c2ncnc3[nH]cnc23)c1F)c1ccc(F)c(F)c1 [Example 14, N-(3-(3-(9H-purin-6-yl)pyridin-2-ylamino)-2,4-difluorophenyl)-3,4-difluorobenzenesulfonamide]
- IC50: < 500 nM

Structure (SMILES): O=S(=O)(Nc1ccc(F)c(Nc2ncccc2-c2ncnc3[nH]cnc23)c1F)c1ccccc1 [Example 15, N-(3-(3-(9H-purin-6-yl)pyridin-2-ylamino)-2,4-difluorophenyl)benzenesulfonamide]
- IC50: < 100 nM

Structure (SMILES): O=S(=O)(Nc1ccc(F)c(Nc2ncccc2-c2ncnc3[nH]cnc23)c1F)c1ccc(Cl)cc1 [Example 17, N-(3-(3-(9H-purin-6-yl)pyridin-2-ylamino)-2,4-difluorophenyl)-4-chlorobenzenesulfonamide]
- IC50: < 500 nM

Structure (SMILES): O=S(=O)(CCC(F)(F)F)Nc1ccc(F)c(Nc2ncccc2-c2ncnc3[nH]cnc23)c1F [Example 18, N-(3-(3-(9H-purin-6-yl)pyridin-2-ylamino)-2,4-difluorophenyl)-3,3,3-trifluoropropane-1-sulfon amide]
- IC50: < 100 nM

Structure (SMILES): O=S(=O)(CC(F)(F)F)Nc1ccc(F)c(Nc2ncccc2-c2ncnc3[nH]cnc23)c1F [Example 19, N-(3-(3-(9H-purin-6-yl)pyridin-2-ylamino)-2,4-difluorophenyl)-2,2,2-trifluoromethanesulfonamide]
- IC50: < 100 nM

Structure (SMILES): C=CS(=O)(=O)Nc1ccc(F)c(Nc2ncccc2-c2ncnc3[nH]cnc23)c1F [Example 20, N-(3-(3-(9H-purin-6-yl)pyridin-2-ylamino)-2,4-difluorophenyl)ethenesulfonamide]
- IC50: < 500 nM

Structure (SMILES): O=S(=O)(Nc1ccc(F)c(Nc2ncccc2-c2ncnc3[nH]cnc23)c1F)C1CC1c1ccccc1 (centres unmarked) [Example 21, N-(3-(3-(9H-purin-6-yl)pyridin-2-ylamino)-2,4-difluorophenyl)-2-phenylcyclopropane-1-sulfonamide]
- IC50: < 500 nM

Structure (SMILES): COc1ccc(C2CC2S(=O)(=O)Nc2ccc(F)c(Nc3ncccc3-c3ncnc4[nH]cnc34)c2F)cc1 (centres unmarked) [Example 22, N-(3-(3-(9H-purin-6-yl)pyridin-2-ylamino)-2,4-difluorophenyl)-2-(4-methoxyphenyl)cyclopropane-1-sulfonamide]
- IC50: < 1000 nM

Structure (SMILES): O=S(=O)(Nc1ccc(F)c(Nc2ncccc2-c2ncnc3[nH]cnc23)c1F)c1ccc(F)cc1 [Example 23, N-(3-(3-(9H-purin-6-yl)pyridin-2-ylamino)-2,4-difluorophenyl)-4-fluorobenzenesulfonamide]
- IC50: < 1000 nM

Structure (SMILES): O=S(=O)(Nc1ccc(F)c(Nc2ncccc2-c2ncnc3[nH]cnc23)c1F)c1ccsc1 [Example 24, N-(3-(3-(9H-purin-6-yl)pyridin-2-ylamino)-2,4-difluorophenyl)thiophene-3-sulfonamide]
- IC50: < 100 nM

Structure (SMILES): CCCS(=O)(=O)Nc1ccc(F)c(Nc2ncccc2-c2ncnc3[nH]ncc23)c1F [Example 25, N-(3-(3-(1H-pyrazolo[3,4-d]pyrimidin-4-yl)pyridin-2-ylamino)-2,4-difluorophenyl)propane-1-sulfonamide]
- IC50: < 500 nM

Structure (SMILES): CCCS(=O)(=O)Nc1ccc(F)c(Nc2ncccc2-c2ncnc3[nH]ccc23)c1F [Example 26, N-(3-(3-(7H-pyrrolo[2,3-d]pyrimidin-4-yl)pyridin-2-ylamino)-2,4-difluorophenyl)propane-1-sulfonamide]
- IC50: < 500 nM

Structure (SMILES): CCCS(=O)(=O)Nc1ccc(C)c(Nc2ccccc2-c2ncnc3[nH]cnc23)c1 [Example 27, N-(3-(2-(9H-purin-6-yl)phenylamino)-4-methylphenyl)propane-1-sulfonamide]
- IC50: < 100 nM

Structure (SMILES): CCCS(=O)(=O)Nc1ccc(F)c(Nc2ccccc2-c2ncnc3[nH]cnc23)c1F [Example 28, N-(3-(2-(9H-purin-6-yl)phenylamino)-2,4-difluorophenyl)propane-1-sulfonamide]
- IC50: < 1000 nM

Source: US9550781B2, “Kinase modulating compounds, compositions containing the same and use thereof” (CENTAURUS BIOPHARMA CO., LTD., priority 2011, dated 2017)
